Reference: patent US11286273B2, “Rhamnolipid compounds and use thereof” (KOREA INSTITUTE OF OCEAN SCIENCE & TECHNOLOGY, priority 2019, dated 2022)

Experiments:
Format in all cases: cell-based
HCT-15 = assay: SRB growth inhibition, HCT-15 (colon cancer); details: Homo sapiens, HCT-15, 48 hours
Method: (§1) Human cancer cell lines HCT-15 (colon cancer), NUGC-3 (gastric cancer), NCI-H23 (liver cancer), ACHN (kidney cancer), PC-3 (prostate cancer) and MDA-MB-231 (breast cancer) were purchased from American Type Culture Collection (Manassas, Va.).
(§2) Cancer cell lines were cultured in RPMI 1640 supplemented with 10% fetal bovine serum (FBS) in a 5% CO2 humid atmosphere at 37° C. The evaluation of growth inhibitory ability against human cancer cell lines was performed via the Sulforhodamine B (SRB) method. The cells were dispensed into a 96-well plate at a density of 8,000 cells/well, and the next day, cells were treated with compounds 1 to 3 (0.1% DMSO as vehicle control), and treated with a positive control (adriamycin). After incubation for 48 hours, the culture fluid was fixed with 50% trichloroacetic acid ([…]) and stained with 0.4% sulforhodamine B contained in 1% acetic acid. The unbound dye was washed with 1% acetic acid, and the dye bound to the protein was extracted with 10 mM Tris base (pH 10.5) to determine the optical density. The absorbance at 540 nm was determined using a VersaMax microplate reader (Molecular Devices, LLC, Sunnyvale, Calif., USA). The GI50 values were calculated using GraphPad Prism 4.0 software (GraphPad Software, Inc., San Diego, Calif., USA) and shown in Table 3 below.

NUGC-3 = assay: SRB growth inhibition, NUGC-3 (gastric cancer); details: Homo sapiens, NUGC-3, 48 hours
Method: as §1, §2

NCI-H23 = assay: SRB growth inhibition, NCI-H23 (liver cancer); details: Homo sapiens, NCI-H23, 48 hours
Method: as §1, §2

ACHN = assay: SRB growth inhibition, ACHN (kidney cancer); details: Homo sapiens, 48 hours
Method: as §1, §2

PC-3 = assay: SRB growth inhibition, PC-3 (prostate cancer); details: Homo sapiens, PC-3, 48 hours
Method: as §1, §2

MDA-MB-231 = assay: SRB growth inhibition, MDA-MB-231 (breast cancer); details: Homo sapiens, MDA-MB-231, 48 hours
Method: as §1, §2

Human cancer cell lines = assay: SRB growth inhibition, panel of six human cancer cell lines (summary); details: for GI50: Homo sapiens, range over the six cancer cell lines of Table 3
Method: as §1, §2

| SMILES | GI50 (HCT-15) | GI50 (NUGC-3) | GI50 (NCI-H23) | GI50 (ACHN) | GI50 (PC-3) | GI50 (MDA-MB-231) | GI50 (Human cancer cell lines) | activity against cancer cell lines (Human cancer cell lines; summary in words of Table 3) |
| --- | --- | --- | --- | --- | --- | --- | --- | --- |
| CC1OC(O[C@H](CCCCCCCCCCCCC[C@@H](C)O)CC(=O)O)C(O)C(O)C1O (stereo in doubt) [Compound 1, 17-hydroxy-3-(3,4,5-trihydroxy-6-methyltetrahydro-2H-pyran-2-yloxy)octadecanoic acid] | 41.5 µM | 30.6 µM | 27.5 µM | 34.2 µM | 37.8 µM | 30.6 µM | 13.7 to 41.5 µM |  |
| CC(=O)CCCCCCCCCCCCC[C@H](CC(=O)O)OC1OC(C)C(O)C(O)C1O (stereo in doubt) [Compound 2, 17-oxo-3-(3,4,5-trihydroxy-6-methyltetrahydro-2H-pyran-2-yloxy)octadecanoic acid] | 16.7 µM | 19.3 µM | 13.7 µM | 14.1 µM | 18.2 µM | 40.4 µM | 13.7 to 41.5 µM | particularly excellent activity |
| COc1cccc2c1C(=O)c1c(O)c3c(c(O)c1C2=O)C[C@@](O)(C(=O)CO)C[C@@H]3O[C@H]1C[C@H](N)[C@H](O)[C@H](C)O1 [ADR, adriamycin, reference compound] | 1.4 µM | 1.5 µM | 1.4 µM | 1.3 µM | 1.4 µM | 1.5 µM |  |  |
| CC1OC(OC2C(O[C@H](CCCCCCCCCCCCC[C@@H](C)O)CC(=O)O)OC(C)C(O)C2O)C(O)C(O)C1O (stereo partly shown) [Compound 3, 3-(4,5-dihydroxy-6-methyl-3-(3,4,5-trihydroxy-6-methyltetrahydro-2H-pyran-)2-yloxy)tetrahydro-(2H-pyran-2-yloxy)-17-hydroxyoctadecanoic acid] | 26.9 µM | 32 µM | 36.9 µM | 29.1 µM | 33.3 µM | 25.5 µM | 13.7 to 41.5 µM |  |
